# Source: patent US20230077362A1 (CORTEVA AGRISCIENCE LLC, priority 2019, published 2023)
# Read-outs that look alike come from different tables or passages of the source.
# Legend:
# [1] = test system: Beet Armyworm (Spodoptera exigua) ("BAW"), second instar larvae; experiment: Bioassay on beet armyworm (BAW), 128-well diet tray assay; assay type: in vivo; details: for BAW rating: C = not tested, D = no activity noticed; for pest or weed control at 50 µg/cm2: Spodoptera exigua
# Summary of the method: (§1)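 After sealing with a clear self-adhesive lid, the trays are incubated at 25° C. with 14 h light and 10 h dark for 5 to 7 days; mortality in each well is recorded as a percentage and averaged across the eight wells.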
# [2] = test system: Cabbage Looper (Trichoplusia ni) ("CL"), second instar larvae; experiment: Bioassay on cabbage looper (CL), 128-well diet tray assay; assay type: in vivo; details: for CL rating: C = not tested, D = no activity noticed
# Summary of the method: as §1
# [3] = Trichoplusia ni, read-out: CL rating
# [4] = read-out: BAW (Biological Results, rating)
# [5] = Trichoplusia ni, read-out: CL (Biological Results, rating)
compound,measurement,setting,value
CCOc1ccc(-n2cnc(-c3ccc(NC(=O)/N=C4\SCC(=O)N4c4cc(C)ccc4COCC(F)(F)F)c(F)c3)n2)cc1 [Compound J625],BAW rating,"[1]; Table ABC, species BAW",A (50-100)
same,CL rating,"[2]; Table ABC, species CL",A (50-100)
"Cc1ccc(COCC(F)F)c(N2C(=O)CS/C2=N\C(=O)Nc2ccc(-n3cnc(-c4ccc(C(F)(F)F)cc4)n3)cc2F)c1 [Compound J701, (Z)-1-(3-(2-((2,2-Difluoroethoxy)methyl)-5-methylphenyl)-4-oxothiazolidin-2-ylidene)-3-(2-fluoro-4-(3-(4-(trifluoromethyl)phenyl)-1H-1,2,4-triazol-1-yl)phenyl)urea]",pest or weed control at 50 µg/cm2,[1]; read-out: BAW rating,50 to 100%
same,pest or weed control at 50 µg/cm2,[2]; [3],50 to 100%
"CC(C)c1ccc(N(C)C)cc1N1C(=O)CS/C1=N\C(=O)Nc1ccc(-c2ncn(-c3ccc(S(=O)(=O)C(F)(F)F)cc3)n2)cc1C#N [Compound J414, (Z)-1-(2-Cyano-4-(1-(4-((trifluoromethyl)sulfonyl)phenyl)-1H-1,2,4-triazol-3-yl)phenyl)-3-(3-(5-(dimethylamino)-2-isopropylphenyl)-4-oxothiazolidin-2-ylidene)urea]",pest or weed control at 50 µg/cm2,[1]; read-out: BAW rating,50 to 100%
same,pest or weed control at 50 µg/cm2,[2]; [3],50 to 100%
"CCOC(C)c1ccc(C)cc1N1C(=O)CS/C1=N\C(=O)Nc1ccc(-c2ncn(-c3ccc(OC(F)(F)F)cc3)n2)cc1OCOC (stereo not shown) [Compound J174, (Z)-1-(3-(2-(1-Ethoxyethyl)-5-methylphenyl)-4-oxothiazolidin-2-ylidene)-3-(2-(methoxymethoxy)-4-(1-(4-(trifluoromethoxy)phenyl)-1H-1,2,4-triazol-3-yl)phenyl)urea]",pest or weed control at 50 µg/cm2,[1]; [4],50 to 100%
same,pest or weed control at 50 µg/cm2,[2]; [5],50 to 100%
"Cc1ccc(C(C)C)c(N2C(=O)CS/C2=N\C(=O)Nc2c(F)cc(-c3ncn(-c4ccc(OC(F)(F)F)cc4)n3)cc2F)c1 [Compound J78, (Z)-1-(2,6-Difluoro-4-(1-(4-(trifluoromethoxy)phenyl)-1H-1,2,4-triazol-3-yl)phenyl)-3-(3-(2-isopropyl-5-methylphenyl)-4-oxothiazolidin-2-ylidene)urea]",pest or weed control at 50 µg/cm2,[1]; [4],50 to 100%
same,pest or weed control at 50 µg/cm2,[2]; [5],50 to 100%
CCCOc1ccc(C)cc1N1C(=O)CS/C1=N\C(=O)Nc1ccc(-c2ncn(-c3ccc(S(F)(F)(F)(F)F)cc3)n2)cc1F [Compound J541],pest or weed control at 50 µg/cm2,[1]; read-out: BAW rating,50 to 100%
same,pest or weed control at 50 µg/cm2,[2]; [3],50 to 100%
Cc1cc(COCC(F)(F)F)c(N2C(=O)CS/C2=N\C(=O)Nc2ccc(-c3ncn(-c4cccc(OC(F)(F)F)c4)n3)cc2F)cc1C [Compound J738],BAW rating,"[1]; Table ABC, species BAW",A (50-100)
same,CL rating,"[2]; Table ABC, species CL",A (50-100)
"CCOCc1ccc(C)cc1N1C(=O)CS/C1=N\C(=O)Nc1ccc(-c2ncn(-c3ccc(C(F)(F)C(F)(F)F)cc3)n2)cc1F [Compound J795, (Z)-1-(3-(2-(Ethoxymethyl)-5-methylphenyl)-4-oxothiazolidin-2-ylidene)-3-(2-fluoro-4-(1-(4-(perfluoroethyl)phenyl)-1H-1,2,4-triazol-3-yl)phenyl)urea]",BAW rating (% control or mortality class),"[1]; Table ABC, species BAW, 128-well diet tray assay, second instar larvae",A (50-100)
same,mortality at 50 µg/cm2,"[2]; Trichoplusia ni, Table ABC, species CL, 128-well diet tray assay, second instar larvae, read-out: CL rating (% control or mortality class)",50 to 100%
"Cc1ccc(COCC(F)(F)F)c(N2C(=O)CS/C2=N\C(=O)Nc2ccc(-c3ccn(-c4ccc(C(F)(F)F)cn4)n3)cc2F)c1 [Compound J308, (Z)-1-(2-Fluoro-4-(1-(5-(trifluoromethyl)pyridin-2-yl)-1H-pyrazol-3-yl)phenyl)-3-(3-(5-methyl-2-((2,2,2-trifluoroethoxy)methyl)phenyl)-4-oxothiazolidin-2-ylidene)urea]",pest or weed control at 50 µg/cm2,[1]; [4],50 to 100%
same,pest or weed control at 50 µg/cm2,[2]; [5],50 to 100%
"COC(C)c1ccc(C)cc1N1C(=O)CS/C1=N\C(=O)Nc1ccc(-c2ncn(-c3ccc(OC(F)(F)F)cc3)n2)cc1F (stereo not shown) [Compound J49, (Z)-1-(2-Fluoro-4-(1-(4-(trifluoromethoxy)phenyl)-1H-1,2,4-triazol-3-yl)phenyl)-3-(3-(2-(1-methoxyethyl)-5-methylphenyl)-4-oxothiazolidin-2-ylidene)urea]",pest or weed control at 50 µg/cm2,[1]; [4],50 to 100%
same,pest or weed control at 50 µg/cm2,[2]; [5],50 to 100%
"CC(C)c1cc(F)c(N(C)C)cc1N1C(=O)CS/C1=N\C(=O)Nc1ccc(-c2ncn(-c3ccc(OC(F)(F)F)cc3)n2)cc1F [Compound J162, (Z)-1-(3-(5-(Dimethylamino)-4-fluoro-2-isopropylphenyl)-4-oxothiazolidin-2-ylidene)-3-(2-fluoro-4-(1-(4-(trifluoromethoxy)phenyl)-1H-1,2,4-triazol-3-yl)phenyl)urea]",pest or weed control at 50 µg/cm2,[1]; [4],50 to 100%
same,pest or weed control at 50 µg/cm2,[2]; [5],50 to 100%
"Cc1ccc(COCC(F)(F)F)c(N2C(=O)C(CO)(CO)S/C2=N\C(=O)Nc2ccc(-c3ncn(-c4ccc(OC(F)(F)F)cc4)n3)cc2F)c1 [Compound J778, (Z)-1-(5,5-Bis(hydroxymethyl)-3-(5-methyl-2-((2,2,2-trifluoroethoxy)methyl)phenyl)-4-oxothiazolidin-2-ylidene)-3-(2-fluoro-4-(1-(4-(trifluoromethoxy)phenyl)-1H-1,2,4-triazol-3-yl)phenyl)urea]",pest or weed control at 50 µg/cm2,[1]; read-out: BAW rating,50 to 100%
same,pest or weed control at 50 µg/cm2,[2]; [3],50 to 100%
"CCCN(CCC)c1ccc(C(C)C)c(N2C(=O)CS/C2=N\C(=O)Nc2ccc(-c3ncn(-c4ccc(OC(F)(F)F)cc4)n3)cc2C)c1 [Compound J130, (Z)-1-(3-(5-(Dipropylamino)-2-isopropylphenyl)-4-oxothiazolidin-2-ylidene)-3-(2-methyl-4-(1-(4-(trifluoromethoxy)phenyl)-1H-1,2,4-triazol-3-yl)phenyl)urea]",pest or weed control at 50 µg/cm2,[1]; [4],50 to 100%
same,pest or weed control at 50 µg/cm2,[2]; [5],50 to 100%
Cc1cc(COCC(F)(F)F)c(N2C(=O)CS/C2=N\C(=O)Nc2ccc(-c3ncn(-c4ccc(OC(F)(F)F)cc4)n3)cc2C)cc1C [Compound J460],BAW rating,"[1]; Table ABC, species BAW",A (50-100)
same,CL rating,"[2]; Table ABC, species CL",A (50-100)
"CN(C)c1ccc(OCCC(F)(F)F)c(N2C(=O)CS/C2=N\C(=O)Nc2ccc(-c3ncn(-c4ccc(C(F)(F)F)cc4)n3)cc2F)c1 [Compound J184, (Z)-1-(3-(5-(Dimethylamino)-2-(3,3,3-trifluoropropoxy)phenyl)-4-oxothiazolidin-2-ylidene)-3-(2-fluoro-4-(1-(4-(trifluoromethyl)phenyl)-1H-1,2,4-triazol-3-yl)phenyl)urea]",pest or weed control at 50 µg/cm2,[1]; [4],50 to 100%
same,pest or weed control at 50 µg/cm2,[2]; [5],50 to 100%
"COc1ccc(C(C)C)c(N2C(=O)CS/C2=N\C(=O)Nc2ccc(-c3ncn(-c4ccc(OC(F)(F)F)cc4)n3)c(C)c2)c1 [Compound J22, (Z)-1-(3-(2-Isopropyl-5-methoxyphenyl)-4-oxothiazolidin-2-ylidene)-3-(3-methyl-4-(1-(4-(trifluoromethoxy)phenyl)-1H-1,2,4-triazol-3-yl)phenyl)urea]",pest or weed control at 50 µg/cm2,[1]; [4],50 to 100%
same,pest or weed control at 50 µg/cm2,[2]; [5],50 to 100%
Cc1cc(COCC(F)(F)F)c(N2C(=O)CS/C2=N\C(=O)Nc2ccc(-c3ncn(-c4ccc(S(F)(F)(F)(F)F)cc4)n3)cc2F)cc1C [Compound J497],BAW rating,"[1]; Table ABC, species BAW",A (50-100)
same,CL rating,"[2]; Table ABC, species CL",A (50-100)
"CC(C)c1ccc(N(C)C)cc1N1C(=O)CS/C1=N\C(=O)Nc1ccc(-c2nnc(-c3ccc(OC(F)(F)F)cc3)s2)cc1F [Compound J506, (Z)-1-(3-(5-(Dimethylamino)-2-isopropylphenyl)-4-oxothiazolidin-2-ylidene)-3-(2-fluoro-4-(5-(4-(trifluoromethoxy)phenyl)-1,3,4-thiadiazol-2-yl)phenyl)urea]",pest or weed control at 50 µg/cm2,[1]; read-out: BAW rating,50 to 100%
same,pest or weed control at 50 µg/cm2,[2]; [3],50 to 100%
"CCNc1ccc(C(C)C)c(N2C(=O)CS/C2=N\C(=O)Nc2ccc(-c3ncn(-c4ccc(OC(F)(F)F)cc4)n3)cc2CC)c1 [Compound J158, (Z)-1-(2-Ethyl-4-(1-(4-(trifluoromethoxy)phenyl)-1H-1,2,4-triazol-3-yl)phenyl)-3-(3-(5-(ethylamino)-2-isopropylphenyl)-4-oxothiazolidin-2-ylidene)urea]",pest or weed control at 50 µg/cm2,[1]; [4],50 to 100%
same,pest or weed control at 50 µg/cm2,[2]; [5],50 to 100%
Cc1cc(-c2ncn(-c3ccc(OC(F)(F)C(F)(F)F)cc3)n2)ccc1NC(=O)/N=C1\SCC(=O)N1c1cccc(C)c1COCC(F)(F)F [Compound J682],BAW rating,"[1]; Table ABC, species BAW",A (50-100)
same,CL rating,"[2]; Table ABC, species CL",A (50-100)
"Cc1cc(-n2cnc(-c3ccc(OC(F)(F)F)cc3)n2)ccc1NC(=O)/N=C1\SCC(=O)N1c1cc(N(C)C)ccc1C(C)C [Compound J469, (Z)-1-(3-(5-(Dimethylamino)-2-isopropylphenyl)-4-oxothiazolidin-2-ylidene)-3-(2-methyl-4-(3-(4-(trifluoromethoxy)phenyl)-1H-1,2,4-triazol-1-yl)phenyl)urea]",pest or weed control at 50 µg/cm2,[1]; read-out: BAW rating,50 to 100%
same,pest or weed control at 50 µg/cm2,[2]; [3],50 to 100%
"CC(C)c1ccc(N(C)C)cc1N1C(=O)CS/C1=N\C(=O)Nc1ccc(-c2ncn(-c3ccc(OC(F)(F)F)cc3)n2)cc1Br [Compound J219, (Z)-1-(2-Bromo-4-(1-(4-(trifluoromethoxy)phenyl)-1H-1,2,4-triazol-3-yl)phenyl)-3-(3-(5-(dimethylamino)-2-isopropylphenyl)-4-oxothiazolidin-2-ylidene)urea]",pest or weed control at 50 µg/cm2,[1]; [4],50 to 100%
same,pest or weed control at 50 µg/cm2,[2]; [5],50 to 100%
"Cc1ccc(COCC(F)(F)F)c(N2C(=O)CS/C2=N\C(=O)Nc2ccc(-c3ncn(-c4ccc(OC(F)(F)F)cc4)n3)cc2C(F)(F)F)c1 [Compound J165, (Z)-1-(3-(5-Methyl-2-((2,2,2-trifluoroethoxy)methyl)phenyl)-4-oxothiazolidin-2-ylidene)-3-(4-(1-(4-(trifluoromethoxy)phenyl)-1H-1,2,4-triazol-3-yl)-2-(trifluoromethyl)phenyl)urea]",pest or weed control at 50 µg/cm2,[1]; [4],50 to 100%
same,pest or weed control at 50 µg/cm2,[2]; [5],50 to 100%
